From US20210267981A1, “COMPOUNDS FOR THE TREATMENT OF HIV INFECTION AND OTHER DISEASES CAUSED BY RNA VIRUSES” (UNIVERSIDAD CATOLICA DE VALENCIA "SAN VICENTE MARTIR", priority 2018, published 2021)
pEC50, pIC50, pKd: −log10 of the molar value. Read-outs that look alike come from different tables or passages of the source.

What was measured:
[1] = test system: IIB-Rev34-50 interaction (subdomain IIB of RRE and FITC-labeled Rev34-50 peptide); assay: Fluorescence anisotropy (FA) inhibition of IIBh-Rev34-50 interaction; type: binding, HIV-1
Procedure: Fluorescence Anisotropy (FA).
These experiments were performed and analyzed as described in the state of the art (Prado et al., Biochem Pharmacol 107 (2016) 14-28; Gonzalez-Bulnes et al., Angewandte Chemie-International Edition 52(50) (2013) 13405-13409; Luedtke et al., Biopolymers 70(1) (2003) 103-19), using 96-well plates and Victor X3 or Victor X5 plate readers (Perkin Elmer, Waltham USA). The assays used 10 nM of frevp and 60 nM of IIBh, and included one positive control (a mixture of IIBh and frevp) and two negative controls (frevp and a mixture of IIBh, frevp, and neomycin B). IIBh-frevp inhibition was only considered to exist when anisotropy reached the expected minimum value at the highest inhibitor concentrations. To ensure that there would not be spectral superposition with FITC, anisotropy data was also collected for each of the compounds. None of them emitted fluorescence under the assay conditions. These experiments were repeated three times for each compound.
(§1) The capacity of the compounds to inhibit IIB-Rev34-50 interaction was evaluated by means of an assay based on the detection, by means of fluorescence anisotropy (FA), of the shift of an FITC-labeled Rev34-50 peptide from its binding site in subdomain IIB of RRE. The capacity of the compounds to inhibit the formation of the RRE-Rev complex was evaluated by means of an electrophoretic mobility shift assay (EMSA).

HIV-1 = assay: Anti-HIV-1 activity, cell infection assay in MT-2 cells (pNL4.3-Ren supernatants); type: cell-based
Procedure: Plasmids, Virus, and Cells for Ex Vivo Assays.
Vectors pNL4.3-Luc and pNL4.3-Ren were generated by cloning luciferase and Renilla genes, respectively, in the nef site of HIV-1 proviral plasmid pNL4.3 (Adachi et al., J Virol 59(2) (1986) 284-91), as described previously in the state of the art (Garcia-Perez et al., J Med Virol 79(2) (2007) 127-37). MT-2 cells (Harada et al., Science 229(4713) (1985) 563-6) and 293T cells (American Type Culture Collection, Rockville, USA) were cultured as described previously (Prado et al., Biochem Pharmacol 107 (2016) 14-28).
(§2) Anti-HIV-1 Activity and Cell Toxicity.
(§3) The methodology used for performing and analyzing these experiments has been described previously (Prado et al., Biochem Pharmacol 107 (2016) 14-28; Gonzalez-Bulnes et al., Angewandte Chemie-International Edition 52(50) (2013) 13405-13409). Briefly, infectious supernatants were obtained from 293T cells transfected with the pNL4.3-Ren plasmid. MT-2 cells were infected with these supernatants in the presence of the compounds, and the anti-HIV activity was quantified 48 h after infection by determining luciferase activity in the cell lysates. Cell viability was evaluated in cells treated with the same compound concentrations using the CellTiter-Glo assay (Promega). The antiviral activity and cell toxicity results represent the average of at least three independent experiments.

[2] = test system: HIV-1 RNA transcripts (RRE-Rev system in a cellular context); assay: HIV-1 RNA processing analysis by RT-qPCR in MT-2 cells transfected with pNL4.3; type: cell-based; details: 5 and 10 μM
Procedure: HIV-1 RNA Processing Analysis.
MT-2 cells, previously treated for 72 or 96 hours with two different concentrations (5 and 10 μM) of compound 1a or 2a, were transfected with a pNL4.3 plasmid. Total cellular RNA was then isolated, treated with DNase I, and reverse transcribed as described in the state of the art (Prado et al., Biochem Pharmacol 107 (2016) 14-28). The unprocessed, semi-processed, and completely processed HIV-1 RNA transcripts were quantified by means of qPCR in relation to an untreated control obtained, using primers described by Mohammadi et al. (PLoS Pathog 9(1) (2013) e1003161), and GAPDH as endogenous control.
Whether or not compounds 1a and 2a acted in the RRE-Rev system in a cellular context was then verified. After transfecting the cells with a full-length proviral vector, the amounts of unprocessed, semi-processed, and completely processed HIV-1 RNA transcripts were quantified by means of RT-qPCR in the absence and presence of each compound (Prado et al., Biochem Pharmacol 107 (2016) 14-28). Given that Rev indirectly puts the splicing process at a disadvantage by transporting unprocessed or semi-processed viral transcripts from the nucleus to the cytoplasm, the blocking of the RRE-Rev system should increase the levels of completely processed species and reduce the amount of unprocessed or semi-processed HIV-1 transcripts.

[3] = test system: subdomain IIB of the RRE (IIBh-19ap RNA); assay: Fluorescence intensity binding to IIBh RNA, with or without competing RNAtCys or LTRd DNA; parameters: species or system HIV-1; details: for specificity of the interaction with IIB: 100-fold molar excess of RNAtCys or LTRd; for specificity IIB/DNA: Kd(IIBh)/Kd(IIBh + LTRd) quotient; for specificity IIB/RNA: Kd(IIBh)/Kd(IIBh + tRNA) quotient
Procedure: Depending on the absorption spectra of the compounds, these experiments measured association with IIBh-19ap or IIBh-23fl RNA sequences labeled with 2-aminopurine and fluorescein in residues A19 and U23 of the IIB loop, respectively (Prado et al., Biochem Pharmacol 107 (2016) 14-28), and were carried out in a SPECTRA GEMINI XPS plate reader (Molecular Devices, Sunnyvale, USA) or a Victor X5 plate reader (Perkin Elmer). The IIB RNA concentration in these assays was 100 nM, and the specificity of the interactions with respect to RNA and DNA was evaluated by duplicating the experiments in the presence of a 100-fold molar excess (10 μM) of RNAtCys or LTRd DNA duplex. All the fluorescence intensity experiments were performed at least three times for each compound.
The specificity of the interaction was evaluated by duplicating the experiments in the presence of a 100-fold molar excess of RNAtCys. Likewise, specificity with respect to a double-stranded DNA was evaluated by further performing the experiments with a 100-fold molar excess of a DNA duplex with 26 base pairs (identified as LTRd) containing NF-κB and Sp-1 transcription factor-binding sites (Prado et al., Biochem Pharmacol 107 (2016) 14-28). These two factors bind to the LTR promoter of HIV-1 DNA and are essential for virus replication (Jones et al., AnnuRevBiochem 63 (1994) 717-43).

[4] = test system: HIV-1 LTR promoter (LTR-Luc); assay: Cell transfection assay, LTR-Luc plasmid in MT-2 cells; type: cell-based; details: for pEC50: read-out: EC50 of transfection, LTR; for inhibition of LTR-dependent expression: compared with HIV-1 infection and transfection assays
Procedure: (§4) Cell Transfection Assays.
(§5) MT-2 cells were transfected with plasmids containing a luciferase reporter gene the expression of which was under the control of the complete HIV-1 (NL4.3-luc) or HIV-1 LTR promoter (LTR-Luc). After transfection, the cells were treated with different compound concentrations, and the luciferase activity in the cell lysates was quantified 48 h later (Prado et al., Biochem Pharmacol 107 (2016) 14-28; Gonzalez-Bulnes et al., Angewandte Chemie-International Edition 52(50) (2013) 13405-13409).
The antiviral mechanism of compounds 1a and 2a was examined with additional cellular assays.

IIBh RNA = assay: NMR spectroscopy of compound binding to IIBh RNA; parameters: species or system HIV-1; details: increasing ligand:RNA molar ratios
Procedure: The NMR spectra were acquired in a 500 MHz Bruker Avance spectrometer and analyzed with Topspin 3.5 (Bruker Biospin, Billerica, USA). The interaction between the tested compounds and IIBh RNA samples dissolved at a concentration of 40-60 μM were monitored as described previously in the state of the art (Prado et al., Biochem Pharmacol 107 (2016) 14-28; Gonzalez-Bulnes et al., Angewandte Chemie-International Edition 52(50) (2013) 13405-13409), using one-dimensional and two-dimensional experiments (TOCSY) at increasing ligand:RNA molar ratios.
NMR spectroscopy is then used for identifying the binding sites in the IIBh fork of the compounds. […] This compound altered the signals of residues C9, A19, C20, and U23 comprising the Rev binding site, but also disrupted the signals of the double-helix stems flanking the loop. 2a and 2b required a higher drug:RNA molar ratio to induce changes in the signals of IIBh RNA.

[5] = Cell toxicity, CellTiter-Glo assay; type: cell-based; details: human
Text: as §2, §3

MT-2 cells = assay: Cell toxicity, CellTiter-Glo assay; type: cell-based; details: CC50 versus antiviral concentration of the infection experiments
Text: as §2, §3

complete RRE-Rev complex = assay: Electrophoretic mobility shift assay (EMSA) of complete RRE-Rev complex formation; type: binding, HIV-1; details: for pIC50: 78 nM RRE and 1.32 μM Rev, two independent experiments
Procedure: Electrophoretic Mobility Shift Assays (EMSA).
These experiments used 78 nM of complete RRE, 1.32 μM of complete Rev, and increasing concentrations of each compound, and were carried out and analyzed as described previously in the state of the art (Prado et al., Biochem Pharmacol 107 (2016) 14-28; Fang et al., Cell 155(3) (2013) 594-605). The IC50 values were determined by measuring the area and the intensity of the band corresponding to free RRE. These experiments were performed at least three times for each compound.
as §1

[6] = test system: complete HIV-1 (NL4.3-luc); assay: Cell transfection assay, full-length HIV-1 luciferase plasmid (NL4.3-luc) in MT-2 cells; type: cell-based
Procedure: as §4, §5
In order to identify the target or the set of targets of the tested compounds, an assay based on the transfection of a full-length HIV-1 vector is performed. In this experiment, the entry, reverse transcription, and DNA integration phases of the viral cycle are sidestepped, such that only transcriptional or post-transcriptional events which can be blocked by the inhibitor under study are produced.

[7] = range given for FA and EMSA together for 2a and 2b, read-out: IC50 (FA, IIB-Rev34-50 interaction)
[8] = Human immunodeficiency virus 1, MT2, 48 h, read-out: EC50 of infection, HIV
[9] = Human immunodeficiency virus 1, MT2, read-out: EC50 cell infection assay
[10] = IIBh-19ap, 100-fold molar excess of LTRd DNA duplex, read-out: Kd(IIBh + LTRd)
[11] = IIBh-19ap, 100-fold molar excess of RNAtCys, read-out: Kd(IIBh + tRNA)
[12] = MT-2 cells, CellTiter-Glo, read-out: CC50
[13] = Human immunodeficiency virus 1, MT2, 48 h, read-out: EC50 of transfection, HIV
[14] = Human immunodeficiency virus 1, MT2, read-out: EC50 transfection assay of full-length HIV-1 vector
[15] = 60 nM IIBh and 10 nM frevp, three independent experiments, read-out: IC50 IIB-Rev34-50
[16] = IIBh-19ap, no competitor, read-out: Kd(IIBh)

SMILES | pIC50 [1, 7] | pEC50 (HIV-1; [8]) | pEC50 (HIV-1; [9]) | effect on pattern of unprocessed, semi-processed and completely processed HIV-1 RNA transcripts [2] | levels of viral transcripts in relation to untreated cells [2] | specificity of the interaction with IIB [3] | pKd [3, 10] | pKd [3, 11] | specificity IIB/DNA [3] | specificity IIB/RNA [3] | inhibition of LTR-dependent expression [4] | changes of IIBh RNA NMR signals (IIBh RNA) | CC50 [5, 12] | CC50 values fold greater than the antiviral concentrations (MT-2 cells) | pEC50 [6, 13] | pEC50 [6, 14] | pIC50 [1, 15] | pKd [3, 16] | pIC50 (complete RRE-Rev complex) | further results
CN(C)CCOc1cc2c(c3ccccc13)-c1ccccc1C2=O [Compound 1a] | 5.17 | 6.08 | 6.08 | This effect was clearly observed | significant reduction in the levels of viral transcripts | moderate specificity | 5.55 | 5.62 | 0.50 | 0.58 | weaker inhibition of LTR-dependent expression in relation to the activity detected in the complete HIV-1 transfection assay | widened or altered the chemical shift of IIBh resonances at low drug:RNA molar ratios | 28.1 µM | 34 fold | 5.60 | 5.48 to 5.60 | – | – | – | pKd ([3]; fluorescence intensity, read-out: Kd for subdomain IIB of the RRE): 5.85; pEC50 ([4]; Human immunodeficiency virus 1, MT2, 48 h): 4.60 to 4.90; concentrations at which formation of RRE-Rev complexes with an unusual molecular weight was promoted (complete RRE-Rev complex): greater than 10 μM
Fc1nc(N2CCNCC2)c(F)c(Sc2ccc(Cl)cc2)c1F [Compound 2a] | – | 5.70 | 5.70 | did not induce clear changes in the patterns of unprocessed viral transcripts with respect to processed viral transcripts | reduced the amount of viral transcripts to a lesser extent with respect to 1a | specific | 5.04 | 5.05 | 1.17 | 1.20 | inhibited LTR-dependent expression with an EC50 value similar to those measured in the HIV-1 infection and transfection experiments | affected the signals of residues located in the stems flanking the internal loop | – | 22 fold | 5.48 | 5.48 to 5.60 | 5.32 | 4.97 | 5.33 | pEC50 ([4]; Human immunodeficiency virus 1, MT2, MT-2 cells, LTR-Luc, 48 h): 5.36; CC50 [5]: 43.9 µM
N=c1c(S(=O)(=O)c2ccc(Cl)cc2)cc2c(=O)n3ccccc3nc2n1C1CCCCC1 [Compound 2b] | 4.86 to 4.99 | 4.99 | 4.99 | – | – | specific | 4.99 | 4.94 | 1.19 | 1.06 | – | only induced the widening of signals of residue U23 of the loop at a high drug:RNA molar ratio | > 100 µM | > 10 fold | < 4.00 | – | 4.99 | 4.92 | 4.86 | activity in the transfection assay ([6]; at concentrations lower than 100 μM): inactive
